Measurements as given in PMC10110893, “[…]-derived synthetic cannabinoids inhibit T-type calcium channels with divergent effects on seizures in rodent models of epilepsy” (Frontiers in Physiology, 2023).

Tests used:
[1] = system: Scn1a +/- mouse model of Dravet syndrome; assay: Spontaneous seizures and survival monitoring in Scn1a+/- mice; type: in vivo
Experimental: Scn1a ^ +/− mice purchased from The Jackson Laboratory (stock 37107-JAX; Bar Harbour, United States) were maintained as a congenic line on a 129S6/SvEvTac background (129. Scn1a ^+/−). F1 mice were generated by crossing 129. Scn1a ^+/− mice with wild-type C57BL/6J mice (Jackson Laboratory stock no. 000664) and group housed. Scn1a genotype was determined as previously described ([Miller et al., 2014]).
On P18, male and female Scn1a ^ +/− mice were weaned and randomly assigned to treatment groups (untreated or SB2193) with n = 17–19 per group. For spontaneous seizure and survival experiments, SB2193 was administered sub-chronically via supplementation of the compound into chow to avoid stress associated with repeated i.p. injections. Chow was formulated at 5,000 mg/kg SB2193 in chow to provide target brain concentrations of 0.73 μM, with the daily oral dose based on the assumption that each mouse consumes approximately 3 g chow/day. Bodyweight of mice was monitored during the administration period to ensure consumption of chow. Animals in both treatment groups gained weight at an equivalent rate over the chow supplementation period (Supplementary Figure S1).
Continuous video recordings from 00:00 P23 to 24:00 P24 were made using a Samsung SCB-5003 days/night camera equipped with an infrared lens (Seoul, South Korea). The number of spontaneous generalised tonic-clonic seizures (GTCS) occurring over the 48 h recording period was quantified offline by a blinded observer. Statistical comparison was performed in GraphPad Prism using a Mann-Whitney U test as data were non-parametric. Treatment was continued to P30 to monitor survival of mice. Scn1a ^ +/− mice have a high premature mortality rate, with approximately 50% of animals surviving to P30 ([Miller et al., 2014]). We have observed substantial variability in the mortality rate across experimental cohorts which is difficult to explain and likely due to stochastic factors ([Anderson et al., 2020]; [Anderson et al., 2021]; [Anderson et al., 2022]). […]

[2] = system: 6 Hz-induced seizures in Swiss mice; assay: 6 Hz seizure model in mice; type: in vivo, mouse
Experimental: Swiss outbred mice used in 6 Hz seizure experiments were purchased from Australian Resources Centre (stock ARC(S); Canning Vale, Australia) and single housed for 1 week prior to experimentation to prevent fighting.
6 Hz seizures were induced in Swiss male mice (9–10 weeks old) using an Ugo Basile electroconvulsive therapy unit (Model 57,800; Gemonio, Italy). Mice were pre-treated with vehicle, SB2193 (10 mg/kg, 30 mg/kg, 100 mg/kg) or valproic acid (300 mg/kg) via i.p. injection 15 min before seizure induction based on the time-to-peak brain concentration determined in pharmacokinetic studies. […] A drop of 0.5% tetracaine was applied to both corneas immediately following the i.p. injection to provide local anaesthesia. Immediately prior to the electrical stimulation, saline was applied to each cornea to ensure electrical conductivity. Corneal electroshocks were administered at 44 mA, 6 Hz, 3 s shock duration, with a […] rectangular pulse width. Mice were shocked and scored by an observer blinded to treatment for the presence of twitching of the vibrissae, stun, myoclonus, rearing, forelimb clonus, and/or Straub tail. […] The ED50 for SB2193 was calculated using computer-assisted log-probit linear regression analysis ([Litchfield and Wilcoxon, 1949]). A χ^2 test was performed to assess statistical significance.

[3] = Aqueous solubility (dosing observation); type: physicochemical; conditions: prevented assessment at doses above 100 mg/kg
Experimental: SB2193 and SB2193F were prepared in ethanol-Tween 80%–0.9% saline (1:1:18 ratio) and valproic acid in 0.9% saline. All doses were completely soluble in this vehicle except for the 100 mg/kg SB2193 dose, which was a suspension.

In the case of `CCCCCn1cc(C(=O)N2CCN(C(=O)OC(C)(C)C)CC2)c2ccccc21` [SB2193], the “survival of mice to P30” value ([1]; 5,000 mg/kg chow orally P18–P30) is reported as “no effect”, the “spontaneous seizure (GTCS) frequency vs control mice” value ([1]; 5,000 mg/kg chow orally from P18, 48 h recording P23-24, n = 17–19) is reported as “did not decrease” and the bodyweight change ([1]; SB2193-treated vs untreated chow, P18 to P30, n = 14) is reported as “no effect of treatment”. For the same compound, the “percentage of mice protected from seizures compared to vehicle” value ([2]; 100 mg/kg i.p., 15 min before 6 Hz 44 mA stimulation, n = 10) was “significantly increased”, the ED50 ([2]; Mus musculus, ip, log-probit analysis, estimated) was about 120 mg/kg and the aqueous solubility [3] was “poor aqueous solubility”.
